Test results taken from US20210040061A1, “COMPOUND, POLYMER, AND ORGANIC MATERIAL” (Sony Corporation, priority 2018, published 2021).

Columns and labels:
[1] = Limit value (saturation amount) of dissolution of monomer in solvent of hologram recording photosensitive composition; assay type: physicochemical; details: hologram recording photosensitive composition with 8 g of acetone as solvent
Procedure: (§1) In Comparative Example 5, Hologram Recording Photosensitive Composition 50 was prepared by the same method as in Example 7 by using the same materials in the same amounts as in Example 7, except that 0.88 g of Compound 40-1 (the compound of Comparative Example 1) was used as a monofunctional photopolymerizable monomer. […] Note that the amount (0.88 g) in which Compound 40-1 was used is a limit value (saturation amount) of dissolution of the compound in a solvent.
as §1, with “6,” for “5,”, “60” for “50”, “1” for “0.88”, “40-2” for “40-1”, “2)” for “1)”, “(1” for “(0.88”
as §1, with “7,” for “5,”, “70” for “50”, “0.1” for “0.88”, “40-3” for “40-1”, “3)” for “1)”, “(0.1” for “(0.88”

[2] = Solubility measurement in acetone; details: ultrasonic stirring, visual
Procedure: When there was an undissolved portion of the compound, a small amount of acetone was added thereto, and then stirring was further conducted for 30 seconds. The above-mentioned work was repeated, and upon dissolution of the whole of the compound, the solubility was calculated from the total amount of the solvent used.

[3] = Transparency evaluation of resin compatible film with polyvinyl acetate (visual inspection); assay type: physicochemical; set-up: key: Good: Transparency is good.; Poor: Coloration is present; details: for Transparency: 3 μm film, 10 mg compound + 10 mg polyvinyl acetate, visual inspection; for evaluation of transparency: resin compatible film with PVAc
Source text: Several drops of each of these resin compositions were dropped onto a 2 cm square glass substrate, a film was formed by a spin coater, and acetone as a solvent was evaporated off, to form a resin compatible film (3 μm thick) of each compound. These films were confirmed to be transparent by visual inspection and were subjected to evaluation of transparency.
The criterion of transparency evaluation is as follows.
Good . . . Transparency is good.
Poor . . . Coloration is present.

[4] = Refractive index measurement (Abbe's refractometer, acetone solutions, analytical curve extrapolated); assay type: physicochemical; details: light of 589 nm, 25±1° C., extrapolated to volume fraction 1
Procedure: A refractive index measuring method will be described below.
Average refractive indices of the respective compounds to light of 589 nm at room temperature 25±1° C. were measured by an Abbe's refractometer (ER-1, produced by Erma, Inc.) and were plotted against volume fraction of each compound, to form analytical curves (the densities of the compounds were all 1.00 g/cm^3). The analytical curves were extrapolated, and the refractive index when the volume fraction of each compound is 1 was made to be a refractive index of each compound.

[5] = background statement; cited from earlier work

Row | Structure (SMILES) | limit value (saturation amount) of dissolution of the compound in a solvent [1] | Solubility/wt % [2] | Transparency [3] | Refractive index (589 nm) [4] | evaluation of transparency [3] | refractive index [5]
1 | C=C(C)C(=O)OCc1cc2ccccc2c2c1sc1ccc3ccccc3c12 [Comparative Example 1, reference compound] | 0.88 g | <10 wt % | Good | 1.73 | – | –
2 | C=C(C)C(=O)OC(C)c1cc2ccccc2c2c1sc1ccc3ccccc3c12 (centres unmarked) [Comparative Example 2, reference compound] | 1 g | <11 wt % | Poor | 1.71 | Poor | –
3 | C=Cc1cc2ccccc2c2c1sc1ccc3ccccc3c12 [Comparative Example 3, reference compound] | 0.1 g | <1.5 wt % | Poor | 1.8 | Poor | –
4 | c1ccc2c(c1)ccc1sc3ccc4ccccc4c3c12 [Comparative Example 4, reference compound] | – | – | Good | 1.81 | – | –
5 | C=C(C)C(=O)Oc1ccccc1CCc1cc2ccccc2c2c1sc1ccc3ccccc3c12 [Example 1] | – | >20 wt % | Good | 1.8 | – | –
6 | C=C(C)C(=O)Oc1cccc(CCc2cc3ccccc3c3c2sc2ccc4ccccc4c23)c1 [Example 2] | – | >20 wt % | Good | 1.8 | – | –
7 | C=C(C)C(=O)Oc1ccc(CCc2cc3ccccc3c3c2sc2ccc4ccccc4c23)cc1 [Example 3] | – | >20 wt % | Good | 1.8 | – | –
8 | C=C(CCCCCCCCCC)C(=O)Oc1ccccc1CCc1cc2ccccc2c2c1sc1ccc3ccccc3c12 [Example 4] | – | >20 wt % | Good | 1.7 | – | –
9 | C=C(C)C(=O)Oc1ccccc1CCc1cc2ccccc2c2c1sc1ccc3ccccc3c12 [Example 5] | – | >20 wt % | Good | 1.7 | – | –
10 | C=C(C)C(=O)Oc1ccc2ccccc2c1CCc1cc2ccccc2c2c1sc1ccc3ccccc3c12 [Example 6] | – | >20 wt % | Good | 1.81 | – | –
11 | C=C(C)C(=O)Oc1cccc(OC(=O)C(=C)C)c1CCc1cc2ccccc2c2c1sc1ccc3ccccc3c12 [Example 13] | – | >20 wt % | Good | 1.73 | – | –
12 | C=CC(=O)Oc1cccc(OC(=O)C=C)c1CCc1cc2ccccc2c2c1sc1ccc3ccccc3c12 [Example 14] | – | >20 wt % | Good | 1.72 | – | –
13 | C=C(C)C(=O)Oc1cc2ccccc2cc1CCc1cc2ccccc2c2c1sc1ccc3ccccc3c12 [Example 15] | – | >20 wt % | Good | 1.81 | – | –
14 | c1ccc2c(c1)ccc1c2sc2ccc3ccccc3c21 [dinaphthothiophene] | – | – | – | – | – | 1.8
